The text below walks through data of patent publication US8431356B2, “Fluorescence resonance energy transfer assays for sarco/endoplasmic reticulum calcium atpase and phospholamban” (Regents of the University of Minnesota, priority 2009, dated 2013).

Assay [1] relates to LNCaP prostate cancer cells. Particulars: administration of thapsigargin; cited from earlier work.
In assay [2] the target is T1, SERCA (Oryctolagus cuniculus, UniProt P04191).
T1 construct: from tissue
Description: Functional potency of PLB variants by ATPase assay (reconstituted SERCA/PLB). Type of assay: biochemical. Particulars: shift in pCa for 50% activation of SERCA, 5 PLB/SERCA, mean±SEM. An excerpt:
(§1) For intermolecular FRET, IAEDANS-SERCA was reconstituted with DABCYL-PLB essentially as described previously (see Reddy et al., (1999) J. Biol. Chem. 274:7649-7655; Reddy et al., (1995) J. Biol. Chem. 270:9390-9397; Reddy et al., (1996) J. Biol. Chem. 271:14964-14970) but adapted to modify the SERCA membrane concentration (molar ratio, SERCA/1000 lipids) and PLB-to-SERCA ratio (molar ratio PLB/SERCA). The desired amount of DABCYL-PLB in methanol and lipids (DOPC and DOPE, 4:1 weight ratio in chloroform) were gently mixed and dried over nitrogen gas to create a thin film. Residual solvent was removed under vacuum and desiccant overnight. Lipids and peptides were solubilized in reconstitution buffer (5 mM MgCl2, 0.1M KCl, 10% glycerol, 20 mM MOPS, pH 7.0) by vortexing thoroughly, followed by mild sonication for 30 seconds to form unilamellar vesicles. C12E8 (2 mg/mg of lipid) was added to the tube. Detergent was removed over a 3 hour period using Biobeads SM2 (25 mg/mg of C12E8). FRET was measured immediately following reconstitution. Samples were frozen until gel electrophoresis.
(§2) ATPase activity was measured using an NADH-linked, enzyme-coupled microtiter plate assay (200 μL/well) as described in Karim et al., (2000) J. Biol. Chem. 276, 38814-9 and Reddy et al., (2003) Biochemistry 42, 4585-92. [Ca2+] was controlled by Ca/EGTA buffering by the method described in Fabiato et al., (1979) J. Physiol. (Paris) 75:463-505. The assays were detected at 340 nm on a Spectramax Plus microplate spectrophotometer (Molecular Devices) at 25° C. in the presence of ionophore A23187 to dissipate the Ca gradient building up across the membranes due to ATPase activity. The data were plotted (V vs pCa) and fitted by the Hill equation: […]
where V is the initial ATPase rate and n is the Hill coefficient. Data were normalized to the maximal rate, Vmax, which was obtained from the fit, and replotted to determine the shift in pKCa.
(§3) Functional potency was measured by ATPase assay as ΔpKCa, which stands for the shift in pCa value required for 50% activation of SERCA, at a ratio of 5 PLB/SERCA. FRET potency was measured as E(5), the energy transfer efficiency found at a ratio of 5 PLB/SERCA (N=4-6, mean±SEM).

Assay [3] concerns the target T1, SERCA. Description: FRET potency of PLB variants, IAEDANS-SERCA/DABCYL-PLB. Type of assay: binding. Particulars: energy transfer efficiency at 5 PLB/SERCA, mean±SEM.
Text: as §1
(§4) The plates were read at 25° C. using a Gemini EM fluorescence microplate reader, with bottom excitation at 350 nm (6 flashes). The spectra were obtained with 10 nm resolution between 420 and 600 nm (PMT sensitivity set to High). Total read time per plate was estimated to be 20 minutes.
The free calcium concentration, [Ca^2+], was controlled by Ca/EGTA buffering, calculated by the method disclosed in Fabiato et al., (1979) J. Physiol. (Paris) 75:463-505. Measurements were conducted in low-Ca (pCa 6.5) buffer (50 mM KCl, 5 mM MgCl2, 0.5 mM EGTA, 210 μM CaCl2, 50 mM MOPS, pH 7.0), where the inhibitory effect of PLB was maximal.
(§5) The fluorescence resonance energy transfer efficiency (E) was calculated from the fractional decrease of steady-state emission of the donor (FD) due to the presence of the acceptor (FDA):
as §3

Assay [4] deals with SERCA-PLB complex. Description: Competition of LOF PLB mutants with active PLB, ATPase activity. Particulars: 5 moles each per mole SERCA. It counts as biochemical. How it is done: as §2
(§6) The competition of WT-PLB and PLB derivatives was assessed by ATPase activity (e.g., Example 11) and FRET assays (e.g., Example 8). A reconstituted sample containing 5 moles of acceptor-labeled active PLB (WT or I40A) and 5 moles of an unlabeled loss-of-function (LOF) mutant (L31A or S16E) per mole of SERCA was compared with a control, a reconstituted sample with 5 moles of an active PLB (WT or I40A) per mole of SERCA. Competition was measured as the fractional decrease in ΔpKCa or FRET efficiency E, due to the presence of the LOF mutant (N=3-6, mean±SEM).

For assay [5], the system named is SERCA-PLB complex. Description: Competition of LOF PLB mutants with acceptor-labeled active PLB, FRET. Particulars: 5 moles each per mole SERCA. It counts as binding. How it is done: as §4, §5, §6
Where [6] appears, read: competitor vs acceptor-labeled I40A PLB.
[7] abbreviates: competitor vs acceptor-labeled WT PLB.

T1 sequence (P04191 1-994 isoform P04191-2): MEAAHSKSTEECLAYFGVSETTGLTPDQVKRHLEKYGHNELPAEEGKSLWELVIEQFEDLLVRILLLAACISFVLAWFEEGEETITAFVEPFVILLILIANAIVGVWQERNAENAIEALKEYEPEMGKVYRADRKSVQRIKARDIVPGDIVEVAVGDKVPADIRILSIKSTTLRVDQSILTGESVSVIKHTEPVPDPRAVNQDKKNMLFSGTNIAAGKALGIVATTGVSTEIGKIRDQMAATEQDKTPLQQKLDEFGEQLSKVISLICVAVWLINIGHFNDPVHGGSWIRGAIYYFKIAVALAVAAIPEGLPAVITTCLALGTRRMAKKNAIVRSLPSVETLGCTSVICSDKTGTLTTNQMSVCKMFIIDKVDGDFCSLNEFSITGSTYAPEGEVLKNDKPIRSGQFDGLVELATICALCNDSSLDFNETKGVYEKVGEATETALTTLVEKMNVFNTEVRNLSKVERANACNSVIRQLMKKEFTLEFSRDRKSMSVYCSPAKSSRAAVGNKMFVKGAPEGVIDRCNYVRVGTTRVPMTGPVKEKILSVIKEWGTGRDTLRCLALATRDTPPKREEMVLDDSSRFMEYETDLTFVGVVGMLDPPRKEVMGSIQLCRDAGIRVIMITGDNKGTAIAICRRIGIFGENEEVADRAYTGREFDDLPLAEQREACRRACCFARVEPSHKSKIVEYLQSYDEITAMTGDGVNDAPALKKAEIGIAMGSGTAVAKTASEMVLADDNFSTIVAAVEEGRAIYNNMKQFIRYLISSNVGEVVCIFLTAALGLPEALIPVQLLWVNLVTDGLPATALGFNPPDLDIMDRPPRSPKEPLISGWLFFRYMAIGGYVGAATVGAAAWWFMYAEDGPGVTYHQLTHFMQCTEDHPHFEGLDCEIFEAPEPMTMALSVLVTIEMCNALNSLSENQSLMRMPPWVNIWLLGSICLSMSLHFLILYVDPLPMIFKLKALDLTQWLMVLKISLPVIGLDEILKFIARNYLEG

On to `C/C=C(/C)C(=O)O[C@H]1C(C)=C2[C@H]([C@@H]1OC(=O)CCCCCCC)[C@@](C)(OC(C)=O)C[C@H](OC(=O)CCC)[C@@]1(O)[C@H]2OC(=O)[C@@]1(C)O` [thapsigargin], for which the “growth of LNCaP prostate cancer cells in mice” value in assay [1] is reported as “inhibited”.

On to “I40A: PLB derivative, isoleucine to alanine at position 40; monomeric, superinhibitory gain-of-function mutant (MEKVQYLTRSAIRRASTIEMPQQARQKLQNLFINFCLILACLLLICIIVMLL; UniProt P26678 1-52, looked up, variant I40A)”, for which, in the assay with SERCA [2], the “Functional potency (ΔpKCa)” value was 0.48 ± 0.03. For the same molecule, the “FRET potency, E(5)” value in the assay with SERCA [3] came to 0.69 ± 0.03.

Consider “L31A: PLB derivative, leucine to alanine at position 31; loss-of-function (LOF) mutant (MEKVQYLTRSAIRRASTIEMPQQARQKLQNAFINFCLILICLLLICIIVMLL; UniProt P26678 1-52, looked up, variant L31A)”, for which the “Functional potency (ΔpKCa)” value in the assay with SERCA [2] is reported as 0.05 ± 0.01. Further, the “FRET potency, E(5)” value with SERCA [3] worked out at 0.45 ± 0.03. In addition, the entries for the “Functional relief (fractional decrease in ΔpKCa)” value in the assay on SERCA-PLB complex [4] (competitor vs I40A PLB) and in the assay on SERCA-PLB complex [4] (competitor vs WT PLB) were 0.47 ± 0.06 and 0.79 ± 0.04, respectively. The results for the “FRET relief (fractional decrease in FRET efficiency E)” value with SERCA-PLB complex [5] (setting [6]) and in the assay on SERCA-PLB complex [5] (setting [7]) were 0.18 ± 0.12 and 0.37 ± 0.06, respectively.

On to “S16E: PLB derivative, serine to glutamate at position 16; loss-of-function (LOF) mutant (MEKVQYLTRSAIRRAETIEMPQQARQKLQNLFINFCLILICLLLICIIVMLL; UniProt P26678 1-52, looked up, variant S16E)”, for which the “Functional potency (ΔpKCa)” value with SERCA [2] worked out at 0.07 ± 0.02. In addition, the “FRET potency, E(5)” value with SERCA [3] was determined as 0.69 ± 0.02. Further, the “Functional relief (fractional decrease in ΔpKCa)” value is given as 0.40 ± 0.03 in the assay with SERCA-PLB complex [4] (competitor vs I40A PLB) and 0.83 ± 0.05 in the assay on SERCA-PLB complex [4] (competitor vs WT PLB). Besides, the “FRET relief (fractional decrease in FRET efficiency E)” value stood at 0.15 ± 0.08 in the assay on SERCA-PLB complex [5] (setting [6]) and 0.27 ± 0.10 in the assay with SERCA-PLB complex [5] (setting [7]).

“WT: wild-type phospholamban (PLB), made by solid-phase peptide synthesis”: the “Functional potency (ΔpKCa)” value with SERCA [2] is given as 0.18 ± 0.02. Also, in the assay with SERCA [3], the “FRET potency, E(5)” value is given as 0.60 ± 0.03.
